pIC50: −log10 of the molar value.

The experiment addresses T1, human IL-17A (Homo sapiens, UniProt Q16552).
T1 construct: purchased R&D Systems 7955-IL/CF
T1 sequence (Q16552 24-155): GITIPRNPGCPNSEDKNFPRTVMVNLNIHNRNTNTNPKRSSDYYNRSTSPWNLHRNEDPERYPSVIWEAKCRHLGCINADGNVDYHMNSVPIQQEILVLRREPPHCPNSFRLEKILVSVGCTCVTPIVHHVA
Description: IL-17A AlphaLISA competition assay (block of IL-17A binding to its receptor IL-17RA). The note with it: mean IC50 (n≥2), block of IL-17A binding to IL-17RA. As to the method:
The ability of the compounds to block binding of IL-17A to its receptor, IL-17RA, was analysed in a competition assay using AlphaLISA technology (Perkin Elmer). The assay is a bead based AlphaLISA where the IL-17RA is captured on the acceptor bead via an Fc tag and IL-17A is captured on the streptavidin donor bead via a biotinylated anti-IL17A antibody.
Assay buffer was prepared by adding 0.05% Tween-20 (v/v) and 0.1% BSA to Phosphate Buffered Saline (PBS). The assay was carried out in 384-well white low volume plates (Perkin Elmer #6008359). 10 μL of a 7.5 nM stock of human recombinant IL-17A (R&D Systems 7955-IL/CF) diluted in assay buffer was dispensed into the assay plate and compounds or DMSO vehicle control were added in a volume of 75 nL using an acoustic dispenser (Beckman). The compounds were pre-incubated with the IL-17A for 30 min at room temperature prior to addition of 5 μL of a 5 nM stock of human recombinant IL-17RA/Fc chimera (R&D Systems 177-IR-100) diluted in assay buffer. The IL-17A was incubated with the receptor for a further 90 minutes at room temperature before addition of 5 μL of a mixture of anti-human Fc IgG acceptor beads (75 μg/mL, Perkin Elmer AL1030) and anti-IL-17A biotin conjugated antibody (5 nM, Abcam, #ab155575) in assay buffer. After a further 30 min incubation at room temperature, 5 μL of streptavidin donor beads (75 μg/mL, Perkin Elmer 6760002S) were added and the plate was incubated for 3 h in the dark.
The AlphaLisa signal was measured using the PheraSTAR plate reader (BMG). Data were analysed using GeneData Screener and fitted to a 4-parameter logistic equation. The IC50 values were calculated using the DMSO vehicle as the negative control and a high concentration (4 μM) of a reference IL-17A inhibitor as the positive control. All compounds were analysed at least in duplicate (n≥2).
On the technique in general: Bead proximity is the source of the signal in Alpha formats.
The pIC50 is the IC50 on a negative log10 scale, so that one unit is a factor of ten. In the case of `COCC(NC(=O)CCC(F)(F)F)c1ccnc(NC(=O)[C@@H](NC(=O)c2nonc2C2CC2)C2CCC(F)(F)CC2)c1` (single isomer, unassigned) [Example 134], the negative logarithm of the IC50 (pIC50) was 5.90.

`COCC(NC(=O)CCC(F)(F)F)c1ccnc(NC(=O)[C@@H](NC(=O)c2ccnn2C)C2CCC(F)(F)CC2)c1` (single isomer, unassigned) [Example 136] gave a negative logarithm of the IC50 (pIC50) of 6.60.

In turn, `COCC(NC(=O)CCC(F)(F)F)c1ccnc(NC(=O)[C@@H](NC(=O)c2ccnn2C(C)C)C2CCC(F)(F)CC2)c1` (single isomer, unassigned) [Example 137] gave a pIC50 of 6.71.

In turn, `CCn1nccc1C(=O)N[C@H](C(=O)Nc1cc(C(COC)NC(=O)CCC(F)(F)F)ccn1)C1CCC(F)(F)CC1` (single isomer, unassigned) [Example 138] had a negative logarithm of the IC50 (pIC50) of 6.79.

Regarding `COCC(NC(=O)CCC(F)(F)F)c1ccnc(NC(=O)[C@@H](NC(=O)c2ccnn2C2CC2)C2CCC(F)(F)CC2)c1` (single isomer, unassigned) [Example 139], the pIC50 is 6.58.

`COCC(NC(=O)CCC(F)(F)F)c1ccnc(NC(=O)[C@@H](NC(=O)c2nccn2C)C2CCC(F)(F)CC2)c1` (single isomer, unassigned) [Example 140] had a pIC50 of 5.13.

On to `COCC(NC(=O)CCC(F)(F)F)c1ccnc(NC(=O)[C@@H](NC(=O)c2nccn2C(C)C)C2CCC(F)(F)CC2)c1` (single isomer, unassigned) [Example 141], for which the pIC50 was 6.19.

`COCC(NC(=O)CCC(F)(F)F)c1ccnc(NC(=O)[C@@H](NC(=O)c2ccnn2CC2CC2)C2CCC(F)(F)CC2)c1` (single isomer, unassigned) [Example 142] had a pIC50 of 6.69.

Compound `COCC(NC(=O)CCC(F)(F)F)c1ccnc(NC(=O)[C@@H](NC(=O)c2ccnn2C)C2CCC(F)(F)CC2)c1` (single isomer, unassigned) [Example 143] had a pIC50 of 5.49.

For `CCn1nccc1C(=O)N[C@H](C(=O)Nc1cc(C(COC)NC(=O)CCC(F)(F)F)ccn1)C1CCC(F)(F)CC1` (single isomer, unassigned) [Example 144], the pIC50 is 5.74.

Compound `COCC(NC(=O)CCC(F)(F)F)c1ccnc(NC(=O)[C@@H](NC(=O)c2ccnn2C(C)C)C2CCC(F)(F)CC2)c1` (single isomer, unassigned) [Example 145] gave a pIC50 of 5.87.

As for `COCC(NC(=O)CCC(F)(F)F)c1ccnc(NC(=O)[C@@H](NC(=O)c2ccnn2C2CC2)C2CCC(F)(F)CC2)c1` (single isomer, unassigned) [Example 146], the pIC50 is 5.35. This pIC50 lies 0.52 log units lower than the previous one.

On to `COCC(NC(=O)CCC(F)(F)F)c1ccnc(NC(=O)[C@@H](NC(=O)c2ccnn2CC2CC2)C2CCC(F)(F)CC2)c1` (single isomer, unassigned) [Example 147], for which the pIC50 was 6.08.

On to `COCC(NC(=O)CCC(F)(F)F)c1ccnc(NC(=O)[C@@H](NC(=O)c2nccn2C(C)C)C2CCC(F)(F)CC2)c1` (single isomer, unassigned) [Example 148], for which the pIC50 was 5.08.

For `COCC(c1ccnc(NC(=O)C(NC(=O)C(F)(F)c2ccc(C)cc2)C2CCC(C)CC2)c1)N1CC(C(F)(F)F)NC1=O` (single isomer, unassigned) [Example 149], the pIC50 is 6.97.

In turn, `COCC(c1ccnc(NC(=O)[C@@H](NC(=O)C(F)(F)c2ccccc2)[C@H]2CC[C@H](C)CC2)c1)N1C[C@@H](C(F)(F)F)NC1=O` (single isomer, unassigned) [Example 150] had a pIC50 of 7.21.

Compound `O=C(N[C@H](C(=O)Nc1cc(C(C2CC2)N2C[C@@H](C(F)(F)F)NC2=O)ccn1)C1CCC(F)(F)CC1)c1nonc1C1CC1` (single isomer, unassigned) [Example 162, 4-Cyclopropyl-N—((S)-2-((4-((R or S)-cyclopropyl((S)-2-oxo-4-(trifluoromethyl)imidazolidin-1-yl)methyl)pyridin-2-yl)amino)-1-(4,4-difluorocyclohexyl)-2-oxoethyl)-1,2,5-oxadiazole-3-carboxamide] gave a pIC50 of 6.35.

Compound `O=C(N[C@H](C(=O)Nc1cc(C(C2CC2)N2C[C@@H](C(F)(F)F)NC2=O)ccn1)C1CCC(F)(F)CC1)c1nonc1C1CC1` (single isomer, unassigned) [Example 163, 4-Cyclopropyl-N-((S)-2-((4-((R or S)-cyclopropyl((S)-2-oxo-4-(trifluoromethyl)imidazolidin-1-yl)methyl)pyridin-2-yl)amino)-1-(4,4-difluorocyclohexyl)-2-oxoethyl)-1,2,5-oxadiazole-3-carboxamide] had a pIC50 of 7.70.

In turn, `Cc1nonc1C(=O)N[C@H](C(=O)Nc1cc(C(C2CC2)N2C[C@@H](C(F)(F)F)NC2=O)ccn1)C1CCC(F)(F)CC1` (single isomer, unassigned) [Example 164, N-((1S)-2-((4-((R or S)-cyclopropyl((S)-2-oxo-4-(trifluoromethyl)imidazolidin-1-yl)methyl)pyridin-2-yl)amino)-1-(4,4-difluorocyclohexyl)-2-oxoethyl)-4-methyl-1,2,5-oxadiazole-3-carboxamide] gave a pIC50 of 7.46.

`CCn1nccc1C(=O)N[C@H](C(=O)Nc1cc(C(C2CC2)N2C[C@@H](C(F)(F)F)NC2=O)ccn1)C1CCC(F)(F)CC1` (single isomer, unassigned) [Example 165, N-((1S)-2-((4-((R or S)-cyclopropyl((S)-2-oxo-4-(trifluoromethyl)imidazolidin-1-yl)methyl)pyridin-2-yl)amino)-1-(4,4-difluorocyclohexyl)-2-oxoethyl)-1-ethyl-1H-pyrazole-5-carboxamide] showed a pIC50 of 7.39.

For the compound `Cn1nccc1C(=O)N[C@H](C(=O)Nc1cc(C(C2CC2)N2C[C@@H](C(F)(F)F)NC2=O)ccn1)C1CCC(F)(F)CC1` (single isomer, unassigned) [Example 166, N-((1S)-2-((4-((R or S)-cyclopropyl((S)-2-oxo-4-(trifluoromethyl)imidazolidin-1-yl)methyl)pyridin-2-yl)amino)-1-(4,4-difluorocyclohexyl)-2-oxoethyl)-1-methyl-1H-pyrazole-5-carboxamide], the pIC50 was 7.30.

In turn, `Cc1nonc1C(=O)N[C@H](C(=O)Nc1cc(C(C)N2C[C@@H](C(F)(F)F)NC2=O)ccn1)C1CCC(F)(F)CC1` (single isomer, unassigned) [Example 169, N-((1S)-1-(4,4-Difluorocyclohexyl)-2-oxo-2-((4-(R or S)-(1-((S)-2-oxo-4-(trifluoromethyl)imidazolidin-1-yl)ethyl)pyridin-2-yl)amino)ethyl)-4-methyl-1,2,5-oxadiazole-3-carboxamide] had a pIC50 of 7.10.

Take `CC(c1ccnc(NC(=O)[C@@H](NC(=O)c2nonc2C2CC2)C2CCC(F)(F)CC2)c1)N1C[C@@H](C(F)(F)F)NC1=O` (single isomer, unassigned) [Example 170, 4-cyclopropyl-N-((S)-1-(4,4-difluorocyclohexyl)-2-oxo-2-((4-((R or S)-1-((S)-2-oxo-4-(trifluoromethyl)imidazolidin-1-yl)ethyl)pyridin-2-yl)amino)ethyl)-1,2,5-oxadiazole-3-carboxamide]: the negative logarithm of the IC50 (pIC50) is 7.68.

For the origin of these results see patent US20260200928A1, “THERAPEUTIC COMPOUNDS” (Sanofi, priority 2022, published 2026).
